Structures can show the parent of a compound that is named as a salt.

For the experiment, the system named is spiral strips of the pulmonary artery of the guinea pig. The experiment can be described thus: relaxant effect on potassium-depolarized, CaCl2-contracted spiral strips of the pulmonary artery of the guinea pig. Particulars: Cavia porcellus, 40 mmol/l potassium, contraction by 0.5 mmol/l CaCl2, cumulative addition, average value of 4 to 6 vessel strips, read-out: IC50: concentration of the test substance which inhibits the contraction by 50%. On the procedure:
The pharmacological action of the compounds of the formula I was determined by a modified method of Godfraind and Kaba (Arch. Int. Pharmacodyn. Ther. 196, (Suppl ) 35 to 49, 1972) and of Schuman et al. (Naunyn-Schmiedeberg'sArch. Pharmacol. 289, 409 to 418, 1975). In this connection, spiral strips of the pulmonary artery of the guinea pig are depolarized using 40 mmol/l of potassium after equilibration in calcium-free Tyrode solution. An addition of 0.5 mmol/l of CaCl2 then induces a contraction. The relaxant effect of the test substance is determined by cumulative addition in semilogarithmic graduated concentrations. The concentration of the test substance which inhibits the contraction by 50% (=IC50, mol/l) is determined from the concentration-effect curve (abscissa: --log mol/l of test substance, ordinate % inhibition of the maximum contraction, average value of 4 to 6 vessel strips).
For `CCOC(=O)[N-]c1cn(N2CCOCC2)n[o+]1` [molsidomine, N-ethoxycarbonyl-3-morpholino-sydnone imine, reference compound], the IC50 is greater than 300000 nM.

With `CC1CCCC(C)N1[n+]1[n-]oc(=N)c1CSc1ccccc1` (stereo not shown) [Example 5, 3-(2,6-Dimethylpiperidino)-4-phenylthiomethylsydnone imine hydrochloride], the IC50 worked out at 1100 nM.

In the case of `CC1CCCC(C)N1[n+]1[n-]oc(=N)c1COc1ccccc1` (stereo not shown) [Example 13, 3-(2,6-Dimethylpiperidino)-4-phenoxymethylsydnone imine hydrochloride], the IC50 was 2000 nM.

`N=c1o[n-][n+](N2CCOCC2)c1CSCc1ccccc1` [Example 7, 4-Benzylthiomethyl-3-morpholinosydnone imine hydrochloride]: the IC50 was 700 nM.

For `CC1CCCC(C)N1[n+]1noc([N-]C(=O)c2ccccc2)c1CSCc1ccccc1` (stereo not shown) [Example 10, N-Benzoyl-4-benzylthiomethyl-3-(2,6-dimethylpiperidino)sydnone imine], the IC50 turned out to be 2000 nM.

Consider `CC(CSCc1ccccc1)c1c(=N)o[n-][n+]1N1CCOCC1` (stereo not shown) [Example 12, 4-(2-Benzylthio-1-methylethyl)-3-morpholinosydnone imine hydrochloride], for which the IC50 was 500 nM.

Turning to `CC1CCCC(C)N1[n+]1[n-]oc(=N)c1CSCc1ccccc1` (stereo not shown) [Example 8, 4-Benzylthiomethyl-3-(2,6-dimethylpiperidino)sydnone imine hydrochloride], the IC50 amounted to 800 nM.

The record behind these values is patent US5079244A, “Substituted 3-aminosydnone imines, pharmaceutical compositions containing same, and process for administering same” (Cassella Aktiengesellschaft, priority 1989, dated 1992).
